ChEMBL document CHEMBL3108687, “Isolation and structures of pipecolidepsins A and B, cytotoxic cyclic depsipeptides from the Madagascan sponge Homophymia lamellosa” (2014)

Columns and labels:
Type in all cases: functional
MDA-MB-231 = experiment: Growth inhibition of human MDA-MB-231 cells after 72 hrs by sulforhodamine B assay; settings: MDA-MB-231, 72 h
HT-29 = experiment: Growth inhibition of human HT-29 cells after 72 hrs by sulforhodamine B assay; settings: HT-29, 72 h
A549 = experiment: Growth inhibition of human A549 cells after 72 hrs by sulforhodamine B assay; settings: A549, 72 h

GI50 (MDA-MB-231)	GI50 (HT-29)	GI50 (A549)	SMILES
20 nM	10 nM	40 nM	CCO[C@H](C(N)=O)[C@@H]1NC(=O)[C@H](CCC(N)=O)N(C)C(=O)[C@H](CC(C)C)NC(=O)[C@@H](CCCCN)NC(=O)[C@@H]([C@@H](C)O)NC(=O)[C@H](NC(=O)[C@@H](NC(=O)[C@H](O)[C@H](O)[C@H](CCC(N)=O)NC(=O)[C@H](NC(=O)[C@H](C)[C@H](O)[C@H](C)CC(C)C)[C@H](O)C(=O)O)[C@@H](C)[C@@H](C)C(N)=O)[C@@H]([C@H](C)C(C)C)OC(=O)[C@@H]2CCCCN2C(=O)[C@@H](CC(=O)O)NC1=O
700 nM	1120 nM	600 nM	CCO[C@H](C(N)=O)[C@@H]1NC(=O)[C@H](CCC(N)=O)N(C)C(=O)[C@H](CC(C)C)NC(=O)[C@@H](CCCCN)NC(=O)[C@@H]([C@@H](C)O)NC(=O)[C@H](NC(=O)[C@@H](NC(=O)[C@H](O)[C@H](O)[C@H](CCC(N)=O)NC(=O)[C@@H](CC(=O)O)NC(=O)[C@H](C)[C@H](O)[C@H](C)CC(C)C)[C@@H](C)[C@@H](C)C(N)=O)[C@@H]([C@H](C)C(C)C)OC(=O)[C@@H]2CCCCN2C(=O)[C@@H](CC(=O)O)NC1=O
